Bridge positions count the residues as written; N and C are the ends. Square brackets hold non-standard residues; d marks the D form. Peptide text beside a SMILES is read from it. * marks the point of attachment. Bip = N[C@@H](Cc1ccc(-c2ccccc2)cc1)C(=O)O; Phe(3-Me) = Cc1cccc(C[C@H](N)C(=O)O)c1; Val(3-OH) = CC(C)(O)[C@H](N)C(=O)O; Cha = N[C@@H](CC1CCCCC1)C(=O)O; Gly(cPr) = N[C@H](C(=O)O)C1CC1; Carboxymethyl = O=C(O)C*; Nle = CCCC[C@H](N)C(=O)O; Orn = NCCC[C@H](N)C(=O)O; Aun = NCCCCCCCCCCC(=O)O; Dab = NCC[C@H](N)C(=O)O
Target: T1, PD-1/PD-L1 interaction (PE-labeled human PD-L1-Ig binding to Jurkat cell line over-expressing human PD-1) (Homo sapiens, UniProt Q15116)
T1 construct: expressed in transfected cells; host or cells: Jurkat
T1 sequence (Q15116 25-288): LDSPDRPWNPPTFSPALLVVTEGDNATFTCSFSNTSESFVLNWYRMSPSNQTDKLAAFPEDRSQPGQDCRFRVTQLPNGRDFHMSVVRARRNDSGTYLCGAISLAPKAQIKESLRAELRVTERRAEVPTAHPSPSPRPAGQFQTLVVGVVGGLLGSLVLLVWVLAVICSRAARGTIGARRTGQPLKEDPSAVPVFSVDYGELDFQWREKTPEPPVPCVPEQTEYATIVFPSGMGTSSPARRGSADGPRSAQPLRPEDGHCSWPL
Test: Jurkat-PD-1 Cell Binding High-Content Screening Assay (CBA)
Assay type: cell-based
Conditions: Jurkat cell line over-expressing human PD-1; PE-labeled PD-L1-Ig 20 nM final; read-out: Jurkat hPD1-PDL1 IC50
In short: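 First, compound is added to PD-1-expressing Jurkat cells in serum-containing DMEM and left 2 h at 37° C. Next, PE-conjugated PD-L1-Ig is introduced at 20 nM final concentration for 1 hour. Finally, cells are fixed in 4% paraformaldehyde with Hoechst 33342, washed and imaged.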

| IC50 | Structure (SMILES) |
| --- | --- |
| 7.6 nM | COC[C@@H]1NC(=O)CSC[C@@H](C(=O)N[C@@H](CCN)C(=O)NCCCCCCCCCCC(=O)O)NC(=O)[C@H](CO)NC(=O)[C@H](C(C)(C)O)NC(=O)[C@H](CC2CCCCC2)NC(=O)[C@H](CCN)NC(=O)[C@@H](CC(C)C)NC(=O)[C@H](CCCN)NC(=O)[C@H](Cc2ccc(OCC(=O)O)cc2)NC(=O)[C@H](Cc2ccc(-c3ccccc3)cc2)NC(=O)[C@H](Cc2ccc(OCC(=O)O)cc2)NC(=O)[C@H](Cc2cccc(C)c2)NC(=O)[C@H](CC(=O)O)NC(=O)[C@H](Cc2ccc(OCC(=O)O)cc2)NC1=O [Compound 2207] ({CH2CO}-S(Me)Y(Carboxymethyl)D[Phe(3-Me)]Y(Carboxymethyl)[Bip]Y(Carboxymethyl)[Orn][dL][Dab][Cha][Val(3-OH)]SC[Dab][Aun]-OH; thioether N-14) |
| 14 nM | Cc1cccc(C[C@@H]2NC(=O)[C@H](CC(=O)O)NC(=O)[C@H](Cc3ccc(OCC(=O)O)cc3)NC(=O)[C@H]([C@@H](C)O)NC(=O)CSC[C@@H](C(=O)N[C@@H](CCN)C(=O)NCCCCCCCCCCC(=O)O)NC(=O)[C@H](CO)NC(=O)[C@H](C(C)(C)O)NC(=O)[C@H](CC3CCCCC3)NC(=O)[C@H](CCN)NC(=O)[C@@H](CC(C)C)NC(=O)[C@H](CCCN)NC(=O)[C@H](Cc3ccc(OCC(=O)O)cc3)NC(=O)[C@H](Cc3ccc(-c4ccccc4)cc3)NC(=O)[C@H](Cc3ccc(OCC(=O)O)cc3)NC2=O)c1 [Compound 2208] ({CH2CO}-TY(Carboxymethyl)D[Phe(3-Me)]Y(Carboxymethyl)[Bip]Y(Carboxymethyl)[Orn][dL][Dab][Cha][Val(3-OH)]SC[Dab][Aun]-OH; thioether N-14) |
| 45.5 nM | Cc1cccc(C[C@@H]2NC(=O)[C@H](CC(=O)O)NC(=O)[C@H](Cc3ccc(OCC(=O)O)cc3)NC(=O)CNC(=O)CSC[C@@H](C(=O)N[C@@H](CCN)C(=O)NCCCCCCCCCCC(=O)O)NC(=O)[C@H](CO)NC(=O)[C@H](C(C)(C)O)NC(=O)[C@H](CC3CCCCC3)NC(=O)[C@H](CCN)NC(=O)[C@@H](CC(C)C)NC(=O)[C@H](CCCN)NC(=O)[C@H](Cc3ccc(OCC(=O)O)cc3)NC(=O)[C@H](Cc3ccc(-c4ccccc4)cc3)NC(=O)[C@H](Cc3ccc(OCC(=O)O)cc3)NC2=O)c1 [Compound 2209] ({CH2CO}-GY(Carboxymethyl)D[Phe(3-Me)]Y(Carboxymethyl)[Bip]Y(Carboxymethyl)[Orn][dL][Dab][Cha][Val(3-OH)]SC[Dab][Aun]-OH; thioether N-14) |
| 8.8 nM | CCCC[C@@H]1NC(=O)CSC[C@@H](C(=O)N[C@@H](CCN)C(=O)NCCCCCCCCCCC(=O)O)NC(=O)[C@H](CO)NC(=O)[C@H](C(C)(C)O)NC(=O)[C@H](CC2CCCCC2)NC(=O)[C@H](CCN)NC(=O)[C@@H](CC(C)C)NC(=O)[C@H](CCCN)NC(=O)[C@H](Cc2ccc(OCC(=O)O)cc2)NC(=O)[C@H](Cc2ccc(-c3ccccc3)cc2)NC(=O)[C@H](Cc2ccc(OCC(=O)O)cc2)NC(=O)[C@H](Cc2cccc(C)c2)NC(=O)[C@H](CC(=O)O)NC(=O)[C@H](Cc2ccc(OCC(=O)O)cc2)NC1=O [Compound 2210] ({CH2CO}-[Nle]Y(Carboxymethyl)D[Phe(3-Me)]Y(Carboxymethyl)[Bip]Y(Carboxymethyl)[Orn][dL][Dab][Cha][Val(3-OH)]SC[Dab][Aun]-OH; thioether N-14) |
| 9 nM | Cc1cccc(C[C@@H]2NC(=O)[C@H](CC(=O)O)NC(=O)[C@H](Cc3ccc(OCC(=O)O)cc3)NC(=O)[C@H](C3CC3)NC(=O)CSC[C@@H](C(=O)N[C@@H](CCN)C(=O)NCCCCCCCCCCC(=O)O)NC(=O)[C@H](CO)NC(=O)[C@H](C(C)(C)O)NC(=O)[C@H](CC3CCCCC3)NC(=O)[C@H](CCN)NC(=O)[C@@H](CC(C)C)NC(=O)[C@H](CCCN)NC(=O)[C@H](Cc3ccc(OCC(=O)O)cc3)NC(=O)[C@H](Cc3ccc(-c4ccccc4)cc3)NC(=O)[C@H](Cc3ccc(OCC(=O)O)cc3)NC2=O)c1 [Compound 2211] ({CH2CO}-[Gly(cPr)]Y(Carboxymethyl)D[Phe(3-Me)]Y(Carboxymethyl)[Bip]Y(Carboxymethyl)[Orn][dL][Dab][Cha][Val(3-OH)]SC[Dab][Aun]-OH; thioether N-14) |

From patent publication US20260022142A1, “MACROCYCLIC IMMUNOMODULATORS” (Bristol-Myers Squibb Company, priority 2022, published 2026)
